Experimental data taken from patent publication US4689326A, “Process for controlling hyperlipidemia” (Research Corporation, priority 1985, dated 1987).

Tests used:
serum cholesterol = test: Testing of Normal Rats: serum cholesterol, Example 8; type: in vivo, Sprague Dawley male rats; details: oral 20 mg/kg/day
Procedure: In Example 8 a set of six Sprague Dawley male rats, each weighing approximately 350 grams, were orally treated with a concentration of 20 mg per kilogram of rat weight per day, again suspended in a 1% aqueous solution of CMC. The dosage was applied orally by an intubation needle. On days 9 and 16 serum cholesterol and serum triglycerides blood levels of the rats were measured utilizing th procedure of Example 7.
A control group of six similar Sprague Dawley male rats were untreated but tested on Days 9 and 16 in accordance with the tests administered to the treated rats. Table 6 reports the percent control based on the decrease in serum cholesterol and serum triglycerides of the treated rats compared to the levels measured in the untreated control group.

[1] = test system: Mitochondrial Citrate Exchange; test: In vitro enzyme activity, liver homogenate: mitochondrial citrate exchange; type: biochemical, CF1 male mouse; details: ± SD, N = 6
Procedure: (§1) In vitro enzymatic studies were undertaken using 10% homogenates of CF1 male mouse liver with […] of compound 3,4,5,6-dibenzohomopiperidine. In addition, in vivo enzymatic studies were performed, again using 10% liver homogenates (prepared in 0.25 M sucrose plus 0.001 M (ethylenedinitrilo)-tetraacetic acid, ph 7.25 from CF1 male mice obtained after administering 3,4,5,6-dibenzohomopiperidine for 16 days at a concentration ranging from 10 to 60 mg/kg/day, intraperitoneally.
(§2) The following enzyme activities were determined by following standard literature procedures: acetyl coenzyme synthetase; adenosine triphosphate dependent citrate lyase; mitochondrial citrate exchange; cholesterol/7 hydroxylase; 3-hydroxy-3-methyl-glutaryl coenzyme A reductase; acetyl coenzyme A carboxylase activity; fatty acid synthetase activity; sn-glycerol-3-phosphate acyl transferase activity; phosphatidate phosphohydrolase activity; cholesterol acyl transferase; and heparin activated hepatic lypoprotein lipase. Protein was determined for all enzyme assays by the Lowry et al. technique (J. Biol. Chem, 193, 265 (1951)).

[2] = target: T1, Acyl CoA Cholesterol Acyl (Mus musculus, UniProt O88908); test: In vitro enzyme activity, liver homogenate: acyl CoA cholesterol acyl transferase; type: biochemical, CF1 male mouse; details: ± SD, N = 6, read-out: Percent Control, in vitro enzyme activity
T1 construct: 10% homogenates of CF1 male mouse liver; from tissue; host or cells: CF1 male mouse liver, 10% homogenate
T1 sequence (O88908 1-525): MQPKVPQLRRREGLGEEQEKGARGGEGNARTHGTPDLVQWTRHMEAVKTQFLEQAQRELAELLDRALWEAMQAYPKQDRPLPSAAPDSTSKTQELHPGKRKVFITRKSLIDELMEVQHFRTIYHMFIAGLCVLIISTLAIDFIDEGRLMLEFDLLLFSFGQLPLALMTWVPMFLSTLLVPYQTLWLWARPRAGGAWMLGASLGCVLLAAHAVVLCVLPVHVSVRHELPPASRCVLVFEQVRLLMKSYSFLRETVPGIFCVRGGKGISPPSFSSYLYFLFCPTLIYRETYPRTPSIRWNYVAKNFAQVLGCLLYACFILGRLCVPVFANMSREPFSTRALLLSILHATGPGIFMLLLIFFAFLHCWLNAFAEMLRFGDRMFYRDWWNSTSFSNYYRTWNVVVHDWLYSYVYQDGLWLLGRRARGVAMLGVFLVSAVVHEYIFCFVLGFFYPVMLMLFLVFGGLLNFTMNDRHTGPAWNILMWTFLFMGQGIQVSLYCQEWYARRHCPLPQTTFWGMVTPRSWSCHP
Procedure: as §1, §2

[3] = test system: Phosphatidate Phosphohyrolase; test: In vitro enzyme activity, liver homogenate: phosphatidate phosphohydrolase; type: biochemical, CF1 male mouse; details: ± SD, N = 6
Procedure: as §1, §2

Acetyl CoA Synthetase = test: In vivo enzyme activity, liver of treated mice: acetyl CoA synthetase; parameters: species or system CF1 male mice; details: 16 days, ± SD
Procedure: as §1, §2

HMG CoA Reductase = test: In vivo enzyme activity, liver of treated mice: HMG CoA reductase; parameters: species or system CF1 male mice; details: 16 days, ± SD
Procedure: as §1, §2

Acetyl CoA Carboxylase = test: In vivo enzyme activity, liver of treated mice: acetyl CoA carboxylase; parameters: species or system CF1 male mice; details: 16 days, ± SD
Procedure: as §1, §2

Liver = test: Lipid Extraction Studies in Rats, Example 11: liver; type: in vivo, Sprague Dawley male rats; details: oral 20 mg/kg/day, fourteen days, ± SD
Small Intestine = test: Lipid Extraction Studies in Rats, Example 11: small intestine; type: in vivo, Sprague Dawley male rats; details: oral 20 mg/kg/day, fourteen days, ± SD
VLDL = test: Lipoprotein fractions in Rats, Example 11: VLDL; type: in vivo, Sprague Dawley male rats; details: oral 20 mg/kg/day, fourteen days, ± SD
Procedure: (§3) A group of six Sprague Dawley male rats were treated with 20 mg/kg/day of 3,4,5,6-dibenzohomopiperidine. The treatment was applied orally. An equal number of Sprague Dawley male rats, having approximately the same weight, were utilized as an untreated control. At the end of fourteen days the control and treated rats were sacrificed. Blood was collected from the abdominal aorta and lipoprotein fractions were obtained by the method of Hatch and Lees [Adv. Lipid Rees., 6, 1 (1968)] and Havel et al. [J. Clin Invest., 34, 1345 (1955)]. Each of the fractions were analyzed for cholesterol, triglycerides, neutral lipids, phospholipids and protein levels.

LDL = test: Lipoprotein fractions in Rats, Example 11: LDL; type: in vivo, Sprague Dawley male rats; details: oral 20 mg/kg/day, fourteen days, ± SD
Procedure: as §3

SMILES: c1ccc2c(c1)CNCc1ccccc1-2 [Compound 3, 3,4,5,6-dibenzohomopiperidine]
- % Control Serum Cholesterol Day 9 (serum cholesterol; day 9, ± SD): 75 ± 5%
- % Control Serum Cholesterol Day 16 (serum cholesterol; day 16, ± SD): 64 ± 3%
- Percent Control, in vitro enzyme activity ([1]; 50 μM): 99 ± 6%
- Percent Control, in vitro enzyme activity ([1]; 100 μM): 97 ± 5%
- Percent Control, in vitro enzyme activity ([1]; 200 μM): 99 ± 7%
- remaining activity at 50 µM ([2]; 50 μM): 60 ± 6%
- remaining activity at 100 µM ([2]; 100 μM): 59 ± 5%
- remaining activity at 200 µM ([2]; 200 μM): 3 ± 1%
- Percent Control, in vitro enzyme activity ([3]; 50 μM): 45 ± 4%
- Percent Control, in vitro enzyme activity ([3]; 100 μM): 44 ± 8%
- Percent Control, in vitro enzyme activity ([3]; 200 μM): 50 ± 6%
- Percent Control, in vivo enzyme activity (Acetyl CoA Synthetase; 10 mg/kg/day ip): 64 ± 6%
- Percent Control, in vivo enzyme activity (Acetyl CoA Synthetase; 20 mg/kg/day ip): 95 ± 6%
- Percent Control, in vivo enzyme activity (Acetyl CoA Synthetase; 40 mg/kg/day ip): 103 ± 8%
- Percent Control, in vivo enzyme activity (Acetyl CoA Synthetase; 60 mg/kg/day ip): 81 ± 6%
- Percent Control, in vivo enzyme activity (HMG CoA Reductase; 10 mg/kg/day ip): 123 ± 5%
- Percent Control, in vivo enzyme activity (HMG CoA Reductase; 20 mg/kg/day ip): 133 ± 9%
- Percent Control, in vivo enzyme activity (HMG CoA Reductase; 40 mg/kg/day ip): 146 ± 7%
- Percent Control, in vivo enzyme activity (HMG CoA Reductase; 60 mg/kg/day ip): 124 ± 6%
- Percent Control, in vivo enzyme activity (Acetyl CoA Carboxylase; 10 mg/kg/day ip): 54 ± 6%
- Percent Control, in vivo enzyme activity (Acetyl CoA Carboxylase; 20 mg/kg/day ip): 57 ± 7%
- Percent Control, in vivo enzyme activity (Acetyl CoA Carboxylase; 40 mg/kg/day ip): 47 ± 5%
- Percent Control, in vivo enzyme activity (Acetyl CoA Carboxylase; 60 mg/kg/day ip): 60 ± 4%
- Cholesterol, concentration as a function of control (Liver): 65 ± 5%
- Mg Lipid Wt, concentration as a function of control (Liver): 89 ± 7%
- Neutral Lipids, concentration as a function of control (Liver): 80 ± 5%
- Phospholipids, concentration as a function of control (Liver): 98 ± 9%
- Protein, concentration as a function of control (Liver): 97 ± 7%
- Triglycerides, concentration as a function of control (Liver): 76 ± 6%
- Cholesterol, concentration as a function of control (Small Intestine): 130 ± 6%
- Mg Lipid Wt, concentration as a function of control (Small Intestine): 143 ± 5%
- Neutral Lipids, concentration as a function of control (Small Intestine): 149 ± 6%
- Phospholipids, concentration as a function of control (Small Intestine): 119 ± 6%
- Protein, concentration as a function of control (Small Intestine): 118 ± 7%
- Triglycerides, concentration as a function of control (Small Intestine): 130 ± 6%
- Cholesterol, concentration as a function of control (VLDL): 40 ± 4%
- Neutral Lipids, concentration as a function of control (VLDL): 63 ± 6%
- Phospholipids, concentration as a function of control (VLDL): 95 ± 7%
- Protein, concentration as a function of control (VLDL): 96 ± 8%
- Triglycerides, concentration as a function of control (VLDL): 69 ± 5%
- Cholesterol, concentration as a function of control (LDL): 82 ± 8%
- Neutral Lipids, concentration as a function of control (LDL): 107 ± 9%
- Phospholipids, concentration as a function of control (LDL): 94 ± 10%
- Protein, concentration as a function of control (LDL): 108 ± 9%
- Triglycerides, concentration as a function of control (LDL): 73 ± 6%
